Assay results: patent US6685932B1, “Coiled-coil dimer derived antagonists of 4-helix bundle cytokines, design and uses thereof” (Europaisches Laboratorium Molekularbiologie, priority 1997, dated 2004)
pKd: −log10 of the molar value. Read-outs that look alike come from different tables or passages of the source. Each block holds one substance with its values, some of them ahead of it. Positions of bridges follow the written chain, without caps; N, C: chain ends. Chains are numbered I, II in the order given.

Legend:
[1] = molecular target: T1, IL-4Rα (extracellular domain, IL4BP) (Homo sapiens, UniProt P24394, Q231C); test: biosensor-based binding experiments (BIA2000 system) on immobilised IL-4 binding protein
T1 sequence (P24394 26-232 Q231C): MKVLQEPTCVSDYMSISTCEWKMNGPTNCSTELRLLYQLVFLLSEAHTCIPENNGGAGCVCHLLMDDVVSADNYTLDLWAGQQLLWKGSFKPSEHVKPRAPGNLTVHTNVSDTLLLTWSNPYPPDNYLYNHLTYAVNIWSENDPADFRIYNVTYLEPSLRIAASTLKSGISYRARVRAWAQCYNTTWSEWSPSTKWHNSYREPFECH
Text: All the peptides were synthesized by solid phase methods, aminated on the C-terminus and acetylated on the N-terminus. The activity of the peptides was investigated by biosensor-based binding experiments using the BIA2000 system (Pharmacia Biosensor), at room temperature. […] An extensive study of the role of disulfide bridges in the stability of coiled-coil structures and proteins in general is available in the literature (86-88).

[2] = temperature-induced denaturation followed by Circular Dichroism; type: physicochemical; settings: for stability / midpoint transition temperature (Tm), in words: CD at 222 nm
Text: Upon fitting the experimental data, the midpoint transition temperature (Tm) can be obtained.

binding affinity relative to parent peptide ([1]; relative to peptide bearing cysteine at position 12): binding affinity is not affected
stability / midpoint transition temperature (Tm), in words [2]: significant drop in the stability
Substance: I: Ac-RMKQLEKKVERCLKRLYRNEWEVIRLKKLVG-NH2 / II: Ac-RMKQLEKKVERCLKRLYRNEWEVIRLKKLVG-NH2 (disulfide I:12-II:12) [Model 12CNMAR-IL4]

Kd ([1]; room temperature (25° C.), immobilised biotinylated IL4BP): 105597
Substance: RMKQLEDKVEELLSKNYRLENRVARLEKLVG [Model 1]

Substance: I: Ac-RMKQLEKKVERCLKRNYRLEWEVIRLKKLVG-NH2 / II: Ac-RMKQLEKKVERCLKRNYRLEWEVIRLKKLVG-NH2 (disulfide I:12-II:12) [Model 12CMAR-IL4]
increase in the binding affinity to IL-4Rα ([1]; relative to MAR-IL4): 5 fold

Substance: Ac-RMKQLEKKVERLLKRNYRLEWEVIRLKKLVG-NH2 [MAR-IL-4]
pKd [1]: 4.59
stability / midpoint transition temperature (Tm), in words [2]: cooperative temperature induced transition characteristic of a folded protein
temperature at which the peptide starts losing its structure ([2]; low peptide concentrations used to measure binding): 25 °C
